Where “and” joins values, the source holds several entries; their conditions need not be identical. Equal entries are not always repeated.
Experiments:
OVCAR-8 = assay: NCI-60 screen, Ovarian Cancer OVCAR-8; type: cell-based, human; conditions: for Growth of Cells (%): OVCAR-8, 10^−5 M one dose
SNB-19 = assay: NCI-60 screen, CNS Cancer SNB-19; type: cell-based, human; conditions: for Growth of Cells (%): SNB-19, 10^−5 M one dose
CAKI-1 = assay: NCI-60 screen, Renal Cancer CAKI-1; type: cell-based, human; conditions: for Growth of Cells (%): CAKI-1, 10^−5 M one dose
MDA-MB-468 = assay: NCI-60 screen, Breast Cancer MDA-MB-468; type: cell-based, human; conditions: for Growth of Cells (%): MDA-MB-468, 10^−5 M one dose
Description: The search for the cytotoxic activity of new derivatives usually starts with in vitro cell-based screening. Four compounds 2b (NSC D-745983/1), 3b (NSC D-766111/1), 4b (NSC D-785591/1) and 4c (NSC D-771706/1), selected by the National Cancer Institute were tested in the anticancer screen for a panel of approximately 60 human disease-oriented tumor cell lines, organized into subpanels derived from nine human cancer types—leukemia, melanoma, and cancers of the lung, colon, brain, breast, ovary, prostate, and kidney. They were initially tested at only one concentration of 10 µM (10^−5 M) for each cell line, which were inoculated and preincubated on a microtiter plate for […]. The results of the one-dose anticancer assay for the tested new compounds are reported as the percentage of the treated cell growth in comparison with untreated no-drug control. This allows for detection of the growth inhibition—values 0–100 and cytotoxicity; negative numbers mean cell death.
Antitumor activity in five dose testing (10^−4−10^−8 M) is expressed by three different dose–response parameters for each of the 60 human tumor cell lines. The GI50 value (molar concentration causing a half-growth inhibition), TGI (molar concentration required for total growth inhibition), which signifies the cytostatic effect, and LC50 (molar concentration of the compound required for 50% cell death). LC50 signifies the cytotoxic effect. […] Nevertheless, the selectivity for GI50 can be seen for several cell lines within subpanel leukemia (SR, log GI50 −6.36) and non-small cell lung cancer (NCI-H522, log GI50 −6.69).
The antitumor screening (NCI-60) was performed at the National Cancer Institute, Bethesda, USA. A total panel of approximately 60 human tumor cell lines derived from nine different cancer types (leukemia, non-small cell lung, colon, brain, melanoma, ovarian, renal, prostate and breast) formed the basis of this in vitro test. The origins and processing of the cell lines used in the study were described previously. First, the compounds were evaluated in a primary anticancer assay at 10^−5 M. Results for each tested compound are reported as the percent of growth of the treated cells. […] The human tumor cell lines of the cancer screening panel were grown in an RMPI 1640 medium containing 5% fetal bovine serum and 2 mM of L-glutamine. Each cell line was inoculated and preincubated at 37 °C, 5% CO2, 95% air and 100% relative humidity for 24 h, before the addition of the test compound into 96-well microtiter plates in 100 µL at plating densities ranging from 5000 to 40,000 cells/well. The density of inoculum depends on the type of tumor cell and its growth characteristics. The screened compounds were solubilized in dimethyl sulfoxide at 400-fold the desired final concentration and stored frozen. At the time of the test agents’ addition, an aliquot of frozen concentrate was thawed and diluted to twice the desired final concentration with complete medium containing 50 µg/mL gentamicin. Next, the test compounds were evaluated at the four additional 10-fold dilutions to reach the final concentrations plus control. Aliquots of 100 µL of the different dilutions (100, 10, 1, […] µM/mL) of the tested compounds were added to microtiter wells, and the culture was incubated for 48 h under the same conditions. Cell were fixed in situ by the addition of 50 µL of cold 50% trichloroacetic acid and incubated for 60 min at 4 °C. The supernatant was discarded; plates were washed five times with water and air-dried. Sulforhodamine B at 0.4% in 1% acetic acid, 100 µL, was added to each well, then plates were incubated for 10 min at room temperature. Unbound dye was removed by washing five times with 1% acetic acid and air dried. The protein-bound stain was solubilized with a […] trizma base and the absorbance was read on an automated plate reader. A wavelength of 515 nm was used to read optical densities. […]

RXF 393 = assay: NCI-60 screen, Renal Cancer RXF 393; type: cell-based, human; conditions: for Growth of Cells (%): RXF 393, 10^−5 M one dose
SNB-75 = assay: NCI-60 screen, CNS Cancer SNB-75; type: cell-based, human; conditions: for Growth of Cells (%): SNB-75, 10^−5 M one dose
SK-OV-3 = assay: NCI-60 screen, Ovarian Cancer SK-OV-3; type: cell-based, human; conditions: for Growth of Cells (%): SK-OV-3, 10^−5 M one dose
HCC-2998 = assay: NCI-60 screen, Colon Cancer HCC-2998; type: cell-based, human; conditions: for Growth of Cells (%): HCC-2998, 10^−5 M one dose
TK-10 = assay: NCI-60 screen, Renal Cancer TK-10; type: cell-based, human; conditions: for Growth of Cells (%): TK-10, 10^−5 M one dose
NCI-H23 = assay: NCI-60 screen, Non-Small Cell Lung Cancer NCI-H23; type: cell-based, human; conditions: for Growth of Cells (%): NCI-H23, 10^−5 M one dose
PC-3 = assay: NCI-60 screen, Prostate C. PC-3; type: cell-based; conditions: for Growth of Cells (%): PC-3, 10^−5 M one dose
HL-60(TB) = assay: NCI-60 screen, Leukemia HL-60(TB); type: cell-based, human; conditions: for Growth of Cells (%): 10^−5 M one dose
U251 = assay: NCI-60 screen, CNS Cancer U251; type: cell-based, human; conditions: for Growth of Cells (%): U251, 10^−5 M one dose
[1] = Homo sapiens, SNB-19, five doses 10^−4–10^−8 M
[2] = Homo sapiens, SNB-75, five doses 10^−4–10^−8 M
[3] = Homo sapiens, HCC-2998, five doses 10^−4–10^−8 M
[4] = Homo sapiens, U-251, U251, five doses 10^−4–10^−8 M

O=c1[nH]c(C(F)(F)F)nc2c1sc(=S)n2-c1ccccc1 [Compound 2b, 3-phenyl-2-thioxo-5-(trifluoromethyl)-2,3-dihydro[1, 3]thiazolo[4,5-d]pyrimidin-7(6H)-one]
Growth of Cells (%) (OVCAR-8): 103.45%
Growth of Cells (%) (SNB-19): 102.20%
Growth of Cells (%) (CAKI-1): 124.11%
Growth of Cells (%) (MDA-MB-468): 91.37%
Growth of Cells (%) (RXF 393): 95.34%
Growth of Cells (%) (SNB-75): 91.21%
Growth of Cells (%) (SK-OV-3): 108.53%
Growth of Cells (%) (HCC-2998): 116.48%
Growth of Cells (%) (TK-10): 130.06%
Growth of Cells (%) (NCI-H23): 112.30%
Growth of Cells (%) (PC-3): 100.88%
Growth of Cells (%) (HL-60(TB)): 149.39%
Growth of Cells (%) (U251): 101.63%

FC(F)(F)c1nc(Cl)c2sc(=S)n(-c3ccccc3)c2n1 [Compound 3b, 7-chloro-3-phenyl-5-(trifluoromethyl)[1, 3]thiazolo[4,5-d]pyrimidine-2(3H)-thione]
GI50 (OVCAR-8; Homo sapiens, OVCAR-8, five doses 10^−4–10^−8 M): 1950 nM
CC50 (OVCAR-8; Homo sapiens, OVCAR-8, five doses 10^−4–10^−8 M, read-out: log LC50 (the source's name) (converted)): > 100 µM
Growth of Cells (%) (OVCAR-8): 4.40%
log TGI (OVCAR-8; OVCAR-8, five doses 10^−4–10^−8 M): −5.27 log M
GI50 (SNB-19; [1]): 1780 nM
LC50 (SNB-19; [1]): 5.89 µM
Growth of Cells (%) (SNB-19): 98.46%
log TGI (SNB-19; SNB-19, five doses 10^−4–10^−8 M): −5.49 log M
Growth of Cells (%) (CAKI-1): 81.74%
log TGI (CAKI-1; CAKI-1, five doses 10^−4–10^−8 M): −5.51 log M
GI50 (CAKI-1; Homo sapiens, CAKI-1, five doses 10^−4–10^−8 M): 1660 nM
CC50 (CAKI-1; Homo sapiens, CAKI-1, five doses 10^−4–10^−8 M, read-out: log LC50 (the source's name) (converted)): 5.75 µM
GI50 (MDA-MB-468; Homo sapiens, MDA-MB-468, five doses 10^−4–10^−8 M): 1700 nM
CC50 (MDA-MB-468; Homo sapiens, MDA-MB-468, five doses 10^−4–10^−8 M, read-out: log LC50 (the source's name) (converted)): 7.41 µM
Growth of Cells (%) (MDA-MB-468): 54.38%
log TGI (MDA-MB-468; MDA-MB-468, five doses 10^−4–10^−8 M): −5.45 log M
GI50 (RXF 393; Homo sapiens, RXF 393, five doses 10^−4–10^−8 M): 1820 nM
CC50 (RXF 393; Homo sapiens, RXF 393, five doses 10^−4–10^−8 M, read-out: log LC50 (the source's name) (converted)): 6.17 µM
Growth of Cells (%) (RXF 393): −16.27%
log TGI (RXF 393; RXF 393, five doses 10^−4–10^−8 M): −5.47 log M
GI50 (SNB-75; [2]): 2000 nM
LC50 (SNB-75; [2]): 8.91 µM
log TGI (SNB-75; SNB-75, five doses 10^−4–10^−8 M): −5.38 log M
GI50 (SK-OV-3; Homo sapiens, SK-OV-3, five doses 10^−4–10^−8 M): 4.9 µM
CC50 (SK-OV-3; Homo sapiens, SK-OV-3, five doses 10^−4–10^−8 M, read-out: log LC50 (the source's name) (converted)): > 100 µM
Growth of Cells (%) (SK-OV-3): 101.94%
log TGI (SK-OV-3; SK-OV-3, five doses 10^−4–10^−8 M): −4.97 log M
Growth of Cells (%) (HCC-2998): −26.98% and −26.89%
log TGI (HCC-2998; HCC-2998, five doses 10^−4–10^−8 M): −5.31 log M
GI50 (HCC-2998; [3]): 2240 nM
LC50 (HCC-2998; [3]): 12.9 µM
GI50 (TK-10; Homo sapiens, TK-10, five doses 10^−4–10^−8 M): 2000 nM
CC50 (TK-10; Homo sapiens, TK-10, five doses 10^−4–10^−8 M, read-out: log LC50 (the source's name) (converted)): 8.32 µM
Growth of Cells (%) (TK-10): 51.24%
log TGI (TK-10; TK-10, five doses 10^−4–10^−8 M): −5.39 log M
GI50 (NCI-H23; Homo sapiens, NCI-H23, five doses 10^−4–10^−8 M): 3.09 µM
CC50 (NCI-H23; Homo sapiens, NCI-H23, five doses 10^−4–10^−8 M, read-out: log LC50 (the source's name) (converted)): 93.3 µM
Growth of Cells (%) (NCI-H23): 99.73%
log TGI (NCI-H23; NCI-H23, five doses 10^−4–10^−8 M): −4.95 log M
GI50 (PC-3; Homo sapiens, PC-3, five doses 10^−4–10^−8 M): 1820 nM
CC50 (PC-3; Homo sapiens, PC-3, five doses 10^−4–10^−8 M, read-out: log LC50 (the source's name) (converted)): 6.76 µM
Growth of Cells (%) (PC-3): 53.66%
log TGI (PC-3; PC-3, five doses 10^−4–10^−8 M): −5.45 log M
Growth of Cells (%) (HL-60(TB)): −41.20%
GI50 (HL-60(TB); Homo sapiens, five doses 10^−4–10^−8 M): 1550 nM
log TGI (HL-60(TB); five doses 10^−4–10^−8 M): −5.41 log M
GI50 (U251; [4]): 1740 nM
LC50 (lethal concentration 50%) (U251; [4]): 5.75 µM
log TGI (U251; U251, five doses 10^−4–10^−8 M): −5.50 log M

CCNc1nc(C(F)(F)F)nc2c1sc(=S)n2-c1ccccc1 [Compound 4b, 7-(ethylamino)-3-phenyl-5-(trifluoromethyl)[1, 3]thiazolo[4,5-d]pyrimidine-2(3H)-thione]
Growth of Cells (%) (OVCAR-8): 96.11%
Growth of Cells (%) (SNB-19): 106.58%
Growth of Cells (%) (CAKI-1): 93.63%
Growth of Cells (%) (MDA-MB-468): 81.60%
Growth of Cells (%) (RXF 393): 100.09%
Growth of Cells (%) (SNB-75): 99.24%
Growth of Cells (%) (SK-OV-3): 101.70%
Growth of Cells (%) (HCC-2998): 115.06%
Growth of Cells (%) (TK-10): 88.79%
Growth of Cells (%) (NCI-H23): 93.44%
Growth of Cells (%) (HL-60(TB)): 98.91%
Growth of Cells (%) (U251): 93.27%

Fc1ccc(CNc2nc(C(F)(F)F)nc3c2sc(=S)n3-c2ccccc2)cc1 [Compound 4c]
Growth of Cells (%) (OVCAR-8): 98.68%
Growth of Cells (%) (SNB-19): 106.48%
Growth of Cells (%) (CAKI-1): 94.38%
Growth of Cells (%) (MDA-MB-468): 96.15%
Growth of Cells (%) (RXF 393): 104.44%
Growth of Cells (%) (SNB-75): 103.11%
Growth of Cells (%) (SK-OV-3): 99.96%
Growth of Cells (%) (HCC-2998): 118.24%
Growth of Cells (%) (TK-10): 130.70%
Growth of Cells (%) (PC-3): 100.51%
Growth of Cells (%) (HL-60(TB)): 93.41%
